Experimental data reported in BindingDB's records for doi:10.1021/jm960093o (Agouron Pharmaceuticals, 1996).
pIC50: −log10 of the molar value.

Target: T1, Dimer of Gag-Pol polyprotein [489-587] (Human immunodeficiency virus 1, UniProt P12497)
T1 construct: 489-587
Assay: Protease Inhibition Assay
Details: pH 5.6; 37 °C
Protocol: Protease activity was measured by continuous chromogenic assay. The chromogenic peptide His-Lys-Ala-Arg-Val-Leu- (p-NO2-Phe)-Glu-Ala-Nleu-Ser (Bachem) was used as a substrate. Reactions were followed by the decrease of absorbance at 300 nm measured by spectrophotometer. Experimental results were analyzed by the nonlinear regression analysis, using a mathematical model for tight binding inhibitors.

| Structure (SMILES) | pIC50 |
| --- | --- |
| CC(C)(C)NC(=O)c1ccccc1CC(O)CSc1ccccc1NC(=O)C(C)(C)C (centres undefined) [N-tert-butyl-2-(3-{[2-(2,2-dimethylpropanamido)phenyl]sulfanyl}-2-hydroxypropyl)benzamide] | < 3.70 |
| CC(C)(C)NC(=O)c1ccccc1NCC(O)Cc1ccc2ccccc2c1C(=O)NC(C)(C)C (centres undefined) [N-tert-butyl-2-(3-{[2-(tert-butylcarbamoyl)phenyl]amino}-2-hydroxypropyl)naphthalene-1-carboxamide] | 3.92 |
| CC(C)(C)NC(=O)c1ccccc1SCC(O)c1ccccc1C(=O)NC(C)(C)C (centres undefined) [N-tert-butyl-2-({2-[2-(tert-butylcarbamoyl)phenyl]-2-hydroxyethyl}sulfanyl)benzamide] | < 3.70 |
| CC(C)N1CCC(CC(O)CCc2ccc3ccccc3c2C(=O)NC(C)(C)C)=C(C(=O)NC(C)(C)C)C1 (centres undefined) [N-tert-butyl-4-{4-[1-(tert-butylcarbamoyl)naphthalen-2-yl]-2-hydroxybutyl}-1-(propan-2-yl)-1,2,5,6-tetrahydropyridine-3-carboxamide] | 4.15 |
